{
  "source": "PubChem BioAssay AID651549",
  "about": "(Sanford-Burnham Center for Chemical Genomics, 2012)",
  "assay": "GAPDH and PEG-3 promoter luciferase suppression – cell-based, luminescence, set 2, counter-screen for PEG-3 promoter inhibitor project, dose response (AID 651549)",
  "details": "HeLa PEG-Prom-luciferase or GAPDH-reporter, 6/24 h",
  "note": "Calls of active or inactive are those of the source.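 Rule for the calls: active = compounds blocking the PEG3 reporter with IC50 up to 10 µM at either incubation, yet sparing the GAPDH control reporter; inactive = the rest.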",
  "data": [
    {"smiles": "CC(=O)c1sc2c(c1OC(=O)c1ccc(Cl)cc1Cl)c(=O)n(-c1ccccc1)c(=S)n2-c1ccccc1", "values": [
      {"measurement": "IC50", "setting": "GAPDH, run 1, 6 h", "result": 0.853, "unit": "µM"},
      {"measurement": "IC50", "setting": "GAPDH, run 1, 24 h", "result": 0.766, "unit": "µM"},
      {"measurement": "IC50", "setting": "PEG-3, run 1, 6 h", "result": "> 99 µM (inactive)"},
      {"measurement": "IC50", "setting": "PEG-3, run 1, 24 h", "result": 5.59, "unit": "µM"}
    ]},
    {"smiles": "CC(=O)OC1(C)CC(C)C(=O)C(C(O)CC2CC(=O)NC(=O)C2)C1", "note": "(stereo not given)", "values": [
      {"measurement": "IC50", "setting": "GAPDH, run 1, 6 h", "result": "< 1", "unit": "µM"},
      {"measurement": "IC50", "setting": "GAPDH, run 1, 24 h", "result": "< 1", "unit": "µM"},
      {"measurement": "IC50", "setting": "PEG-3, run 1, 6 h", "result": "< 1", "unit": "µM"},
      {"measurement": "IC50", "setting": "PEG-3, run 1, 24 h", "result": 0.353, "unit": "µM"}
    ]},
    {"smiles": "CCOc1ccc(-n2cc(-c3ccccc3)c3c(N4CCOCC4)ncnc32)cc1", "values": [
      {"measurement": "IC50", "setting": "GAPDH, run 1, 6 h", "result": "> 99 µM (inactive)"},
      {"measurement": "IC50", "setting": "GAPDH, run 1, 24 h", "result": "> 99 µM (inactive)"},
      {"measurement": "IC50", "setting": "PEG-3, run 1, 6 h", "result": "> 99 µM (inactive)"},
      {"measurement": "IC50", "setting": "PEG-3, run 1, 24 h", "result": "> 99 µM (inactive)"}
    ]},
    {"smiles": "Cc1cc2cc(CCNC(=O)C(=O)c3c[nH]c4ccccc34)c(=O)[nH]c2cc1C", "values": [
      {"measurement": "IC50", "setting": "GAPDH, run 1, 6 h", "result": "inactive"},
      {"measurement": "IC50", "setting": "GAPDH, run 1, 24 h", "result": 4.9, "unit": "µM"},
      {"measurement": "IC50", "setting": "PEG-3, run 1, 6 h", "result": "> 99 µM (inactive)"},
      {"measurement": "IC50", "setting": "PEG-3, run 1, 24 h", "result": 7.83, "unit": "µM"}
    ]},
    {"smiles": "COc1ccc(-n2cc(-c3ccccc3)c3c(N4CCOCC4)ncnc32)cc1", "values": [
      {"measurement": "IC50", "setting": "GAPDH, run 1, 6 h", "result": "inactive"},
      {"measurement": "IC50", "setting": "GAPDH, run 1, 24 h", "result": 2.98, "unit": "µM"},
      {"measurement": "IC50", "setting": "PEG-3, run 1, 6 h", "result": "inactive"},
      {"measurement": "IC50", "setting": "PEG-3, run 1, 24 h", "result": "inactive"}
    ]},
    {"smiles": "Cc1cc(C)cc(NS(=O)(=O)c2ccc3[nH]cc(C(=O)NCc4ccco4)c(=O)c3c2)c1", "values": [
      {"measurement": "IC50", "setting": "GAPDH, run 1, 6 h", "result": "inactive"},
      {"measurement": "IC50", "setting": "GAPDH, run 1, 24 h", "result": 2.43, "unit": "µM"},
      {"measurement": "IC50", "setting": "PEG-3, run 1, 6 h", "result": "> 99 µM (inactive)"},
      {"measurement": "IC50", "setting": "PEG-3, run 1, 24 h", "result": 5.44, "unit": "µM"}
    ]},
    {"smiles": "COc1ccc2[nH]c(=O)c(CN(Cc3cccnc3)S(=O)(=O)c3ccccc3F)cc2c1", "values": [
      {"measurement": "IC50", "setting": "GAPDH, run 1, 6 h", "result": "inactive"},
      {"measurement": "IC50", "setting": "GAPDH, run 1, 24 h", "result": 5.38, "unit": "µM"},
      {"measurement": "IC50", "setting": "PEG-3, run 1, 6 h", "result": "> 99 µM (inactive)"},
      {"measurement": "IC50", "setting": "PEG-3, run 1, 24 h", "result": "inactive"}
    ]},
    {"smiles": "CCC(C)(C)c1ccc(Oc2ccc(N)cc2)cc1", "values": [
      {"measurement": "IC50", "setting": "GAPDH, run 1, 6 h", "result": 5.21, "unit": "µM"},
      {"measurement": "IC50", "setting": "GAPDH, run 1, 24 h", "result": 0.566, "unit": "µM"},
      {"measurement": "IC50", "setting": "PEG-3, run 1, 6 h", "result": 7.48, "unit": "µM"},
      {"measurement": "IC50", "setting": "PEG-3, run 1, 24 h", "result": 7.31, "unit": "µM"}
    ]},
    {"smiles": "CC(C)(C)c1ccc(Oc2ccc(N)cc2)cc1", "values": [
      {"measurement": "IC50", "setting": "GAPDH, run 1, 6 h", "result": 6.12, "unit": "µM"},
      {"measurement": "IC50", "setting": "GAPDH, run 1, 24 h", "result": 5.35, "unit": "µM"},
      {"measurement": "IC50", "setting": "PEG-3, run 1, 6 h", "result": 6.09, "unit": "µM"},
      {"measurement": "IC50", "setting": "PEG-3, run 1, 24 h", "result": 6.51, "unit": "µM"}
    ]},
    {"smiles": "O=C(COc1ccc2c(c1)CCC2)Nc1ccccn1", "values": [
      {"measurement": "IC50", "setting": "GAPDH, run 1, 6 h", "result": 2.7, "unit": "µM"},
      {"measurement": "IC50", "setting": "GAPDH, run 1, 24 h", "result": 1.82, "unit": "µM"},
      {"measurement": "IC50", "setting": "PEG-3, run 1, 6 h", "result": 2.41, "unit": "µM"},
      {"measurement": "IC50", "setting": "PEG-3, run 1, 24 h", "result": 5.02, "unit": "µM"}
    ]},
    {"smiles": "CC(=O)OC1CC[C@]2(C#N)[C@H]3CC[C@]4(C)[C@H](C5C=CC(=O)O5)CCC4(O)C3CCC2(O)C1", "note": "(stereo not given in full)", "values": [
      {"measurement": "IC50", "setting": "GAPDH, run 1, 6 h", "result": 6.51, "unit": "µM"},
      {"measurement": "IC50", "setting": "GAPDH, run 1, 24 h", "result": "inactive"},
      {"measurement": "IC50", "setting": "PEG-3, run 1, 6 h", "result": 1.6, "unit": "µM"},
      {"measurement": "IC50", "setting": "PEG-3, run 1, 24 h", "result": "inactive"}
    ]},
    {"smiles": "NS(=O)(=O)c1ccc(CCNc2nn3c(-c4ccc(F)c(Cl)c4)cnc3s2)cc1", "values": [
      {"measurement": "IC50", "setting": "GAPDH, run 1, 6 h", "result": "inactive"},
      {"measurement": "IC50", "setting": "GAPDH, run 1, 24 h", "result": 2.38, "unit": "µM"},
      {"measurement": "IC50", "setting": "PEG-3, run 1, 6 h", "result": "inactive"},
      {"measurement": "IC50", "setting": "PEG-3, run 1, 24 h", "result": 2.99, "unit": "µM"}
    ]},
    {"smiles": "Cc1c(CN2CCC(CO)(CCOc3ccccc3)CC2)[nH]c2c(Cl)cccc12", "values": [
      {"measurement": "IC50", "setting": "GAPDH, run 1, 6 h", "result": "inactive"},
      {"measurement": "IC50", "setting": "GAPDH, run 1, 24 h", "result": "inactive"},
      {"measurement": "IC50", "setting": "PEG-3, run 1, 6 h", "result": "inactive"},
      {"measurement": "IC50", "setting": "PEG-3, run 1, 24 h", "result": "inactive"}
    ]},
    {"smiles": "COc1ccc(C(=O)Nc2ccc(C)cn2)c(OC)c1", "values": [
      {"measurement": "IC50", "setting": "GAPDH, run 1, 6 h", "result": 1.07, "unit": "µM"},
      {"measurement": "IC50", "setting": "GAPDH, run 1, 24 h", "result": 3.41, "unit": "µM"},
      {"measurement": "IC50", "setting": "PEG-3, run 1, 6 h", "result": 3.63, "unit": "µM"},
      {"measurement": "IC50", "setting": "PEG-3, run 1, 24 h", "result": 4.17, "unit": "µM"}
    ]},
    {"smiles": "Cc1ccc2nc(NC(=O)CSCC(=O)OCC(=O)c3ccccc3)sc2c1", "values": [
      {"measurement": "IC50", "setting": "GAPDH, run 1, 6 h", "result": "inactive"},
      {"measurement": "IC50", "setting": "GAPDH, run 1, 24 h", "result": 5.63, "unit": "µM"},
      {"measurement": "IC50", "setting": "PEG-3, run 1, 6 h", "result": "inactive"},
      {"measurement": "IC50", "setting": "PEG-3, run 1, 24 h", "result": "inactive"}
    ]},
    {"smiles": "CCC(c1nnnn1-c1ccc2c(c1)OCCO2)N1CCC(n2c(=O)[nH]c3ccccc32)CC1", "note": "(stereo not given)", "values": [
      {"measurement": "IC50", "setting": "GAPDH, run 1, 6 h", "result": "inactive"},
      {"measurement": "IC50", "setting": "GAPDH, run 1, 24 h", "result": 4.01, "unit": "µM"},
      {"measurement": "IC50", "setting": "PEG-3, run 1, 6 h", "result": "inactive"},
      {"measurement": "IC50", "setting": "PEG-3, run 1, 24 h", "result": "inactive"}
    ]},
    {"smiles": "Cc1nc2c(-c3ccc(Cl)cc3)c(C)[nH]n2c(=O)c1Cc1ccccc1", "values": [
      {"measurement": "IC50", "setting": "GAPDH, run 1, 6 h", "result": "inactive"},
      {"measurement": "IC50", "setting": "GAPDH, run 1, 24 h", "result": 1.74, "unit": "µM"},
      {"measurement": "IC50", "setting": "PEG-3, run 1, 6 h", "result": "> 99 µM (inactive)"},
      {"measurement": "IC50", "setting": "PEG-3, run 1, 24 h", "result": 2.21, "unit": "µM"}
    ]},
    {"smiles": "Nc1ncn([C@@H]2O[C@H](CO)[C@@H](O)[C@H]2O)c(=O)n1", "values": [
      {"measurement": "IC50", "setting": "GAPDH, run 1, 6 h", "result": 2.73, "unit": "µM"},
      {"measurement": "IC50", "setting": "GAPDH, run 1, 24 h", "result": 0.557, "unit": "µM"},
      {"measurement": "IC50", "setting": "PEG-3, run 1, 6 h", "result": "inactive"},
      {"measurement": "IC50", "setting": "PEG-3, run 1, 24 h", "result": "inactive"}
    ]},
    {"smiles": "Cn1c(Cl)cnc1C1CC(=O)c2cc(Cl)ccc2O1", "note": "(stereo not given)", "values": [
      {"measurement": "IC50", "setting": "GAPDH, run 1, 6 h", "result": "inactive"},
      {"measurement": "IC50", "setting": "GAPDH, run 1, 24 h", "result": 9.11, "unit": "µM"},
      {"measurement": "IC50", "setting": "PEG-3, run 1, 6 h", "result": "inactive"},
      {"measurement": "IC50", "setting": "PEG-3, run 1, 24 h", "result": "inactive"}
    ]},
    {"smiles": "Cc1ccc(S(=O)(=O)NC(CC(C)C)C(=O)NCC(c2ccco2)N2CCCCC2)cc1", "note": "(stereo not given)", "values": [
      {"measurement": "IC50", "setting": "GAPDH, run 1, 6 h", "result": "inactive"},
      {"measurement": "IC50", "setting": "GAPDH, run 1, 24 h", "result": "inactive"},
      {"measurement": "IC50", "setting": "PEG-3, run 1, 6 h", "result": "inactive"},
      {"measurement": "IC50", "setting": "PEG-3, run 1, 24 h", "result": "inactive"}
    ]}
  ]
}
